One series concerns blood proteins. The settings on record: protein-bound ICG not cleared by dialysis; cited from earlier work.
For series [1] the following is noted: cited from earlier work.
The nature of series [2]: Blood ICG concentration after high dose intravenous injection (calibration sequence). It counts as in vivo, New Zealand White rabbits. The settings on record: rabbit, 1 mg ICG intravenously, metabolized by the liver. An excerpt: A. A sample method and system for measuring cardiac output and blood volume. Experiments have been performed in New Zealand White rabbits (2.8-3.5 Kg) anesthetized with halothane and artificially ventilated with an oxygen-enriched gas mixture (Fio2˜0.4) to achieve a Sao2 above 99% and an end-tidal CO2 between 28 and 32 mm Hg (FIG. 4). The left femoral artery was cannulated for measurement of the arterial blood pressure throughout the procedure. A small catheter was positioned in the left brachial vein to inject the indicator, ICG. Body temperature was maintained with a heat lamp.
Calibration of the transcutaneous fluorescence intensity measured at the level of the animals' ear as a function of ICG concentration in blood was performed as follows. […]
As the liver metabolizes ICG, the blood ICG concentration decreases back to 0 in about 20 minutes. […] The fluorescence intensity of the blood in the cuvette was converted to a measurement of concentration using the known standard curve of fluorescence intensity versus ICG concentration established for the cuvette. ICG fluorescence was measured at the level of the ear at the exact time of the blood sample withdrawal. […]
For the range of concentrations used in these studies, ICG concentration and transcutaneous fluorescence were linearly related. […]

Turning to `CC1(C)C(/C=C/C=C/C=C/C=C2\N(CCCCS(=O)(=O)O)c3ccc4ccccc4c3C2(C)C)=[N+](CCCCS(=O)(=O)[O-])c2ccc3ccccc3c21` [ICG, indocyanine green], the “fraction of ICG injected in the bloodstream that binds to blood proteins” value in the series with blood proteins is listed as “more than 95%”. The “stability in aqueous solution” value in series [1] is recorded as “breaks down quickly”. Moreover, the “time for blood ICG concentration to decrease back to 0” value in series [2] was “about 20 minutes”.

(Values after US8337444B2, “Measurement of cardiac output and blood volume by non-invasive detection of indicator dilution for hemodialysis” (Alfred E. Mann Institute for Biomedical Engineering at the …, priority 2001, dated 2012).)
